The target in the experiment is mitochondrial succinate dehydrogenase (SDH) (Zymoseptoria tritici, UniProt F9X9V6+F9XH52+O42772, A84V). Kind of experiment: biochemical. To be noted: IC50.
One may read the IC50 as the concentration needed to halve the response being measured. Read a low IC50 as greater potency in that assay. Take `Cn1cc(C(=O)Nc2ccc(F)cc2-c2ccc(Cl)c(Cl)c2)c(C(F)F)n1` [Bixafen, bixafen]: the IC50 worked out at 0.106 ± 0.017 µM.

`O=C(NCCc1ncc(C(F)(F)F)cc1Cl)c1ccccc1C(F)(F)F` [Fluopyram, fluopyram] displayed an IC50 of 14.8 ± 1.32 µM.

With `Cc1cc(OC(C)C)ccc1C(=O)C(C)(C)NC(=O)c1sccc1C` [Isofetamid, N‐[1,1‐dimethyl‐2‐(4‐isopropoxy‐o‐tolyl)‐2‐oxoethyl]‐3‐methylthiophene‐2‐carboxamide], the IC50 is > 32 µM.

Source of the values: publication PMC5814837 (Pest Management Science, 2017).
